Consider 15 compounds from patent US4792555A, “Phospholipase A2 inhibitors” (American Home Products Corporation, priority 1987, dated 1988).

The target in one assay is T1, human platelet PLA2 (Homo sapiens, UniProt P14555).
T1 sequence (P14555 21-144): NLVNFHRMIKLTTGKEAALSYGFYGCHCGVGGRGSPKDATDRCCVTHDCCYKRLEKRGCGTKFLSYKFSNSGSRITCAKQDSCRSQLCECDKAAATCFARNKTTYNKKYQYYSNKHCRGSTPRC
Put plainly: Inhibition of human platelet PLA2 (hydrolysis of [1-14C]oleic acid labelled E. coli membrane phospholipids) in vitro. Type of assay: biochemical. The note with it: for IC50: standard drugs.

Assay [1] relates to 12-O-tetradecanoylphorbol acetate (TPA)-induced murine ear edema. Put plainly: TPA-induced murine ear edema test. The conditions noted are these: oral, 30 minutes after TPA; 4 μg TPA/ear; measured 4 hours after TPA; dose in mg/kg not given. Type of assay: in vivo, Swiss Webster female mice. As to the method: The ability of the compounds of the invention to inhibit PLA2 is further examined in the in vivo 12-O-tetradecanoylphorbol acetate (TPA)-induced murine ear edema test. According to this test, Swiss Webster female mice (Buckshire), approximately 8 weeks old, are placed into plastic boxes in groups of six. Eight groups of mice receive TPA topically on the right ear. TPA is dissolved in acetone at a concentration of […]. The phlogistics are applied to the right ear by the means of an automatic pipet. Volumes of 10 μl are applied to the inner and outer surfaces of the ear. Each mouse receives 4 μg/ear TPA. The left ear (control) receives acetone delivered in the same manner. […] Measurements are taken with Oditest calipers, 0-10 mm with 0.01 graduations. The right and left ears are measured 4 hours after TPA-induced inflammation. The difference between right and left ear thickness is calculated and the significance is determined by a one way analysis of variance with Dunnett's comparisons to control (P=0.05). Drug effects are expressed as a percent change from control values: [formula]

For assay [2], the system named is rat carrageenan paw edema. Put plainly: Rat carrageenan paw edema assay. The note with it: for % Inhibition (paw edema): 100 mg/kg peroral, 1 hour prior to carrageenan, paw read at 3 hours. Type of assay: in vivo, male Sprague-Dawley rats. As to the method:
The compounds of the invention are further tested in the rat carrageenan paw edema assay to determine their ability to inhibit the acute inflammatory response.
This assay is carried out as follows:
140-180 gm male Sprague-Dawley rats, in groups of 6 animals are injected subcutaneously in the right paw with 0.1 ml of 1% carrageenan at zero time. Mercury plethysmographic readings (ml) of the paw are made at zero time and 3 hours later. Test compounds are suspended or dissolved in 0.5% methylcellulose and given perorally 1 hour prior to carrageenan administration.
The increase in paw volume (edema in ml.) produced by the carrageenan is measured. […] Unpaired Student's t-test used to determine statistical significance.
Background: Carrageenan injected into the paw causes an acute inflammation.

Assay [3] deals with synthesis of arachidonic acid, PGE2 and LTC4 by murine peritoneal macrophages. As to the kind of experiment: Inhibition of synthesis of arachidonic acid, PGE2 and LTC4 by murine peritoneal macrophages. Type of assay: cell-based, CD-1 mice. The note with it: Mus musculus, Peritoneal macrophage, 2 hours. As to the method: The ability of the compounds of the invention to inhibit both leukotriene and prostaglandin synthesis is examined in an assay which measures the ability of the compounds of the invention to inhibit the synthesis of arachidonic acid, PGE2 and LTC4 by murine peritoneal macrophages.
The assay is carried out as follows:
Macrophages are removed from the peritoneal cavity of 55-57 day old CD-1 mice (killed by CO2 asphyxiation) by peritoneal lavage and centrifuged at 400×g for ten minutes. The cells are resuspended in Medium 199 and 4×10^6 cells are allowed to adhere on 35×10 mm Petri dishes for 1.5 hours at 37° C. in an atmosphere of 95% air and 5% CO2. The cell monolayers are washed and incubated overnight in Medium 199 supplemented with 10% heat inactivated bovine serum containing 1μCi[^14 C]-arachidonic acid, or in the absence of ^14 C-arachidonic acid when the supernatant is to be assayed by radioimmunoassay (RIA). The labeled cells are then washed and incubated at 37° C. for 2 hours in Medium 199 with the prostaglandin stimuli, zymosan, or 12-o-tetradecanoyl-phorbol-13-acetate (TPA) and in the presence or absence of test compounds. Following incubation, the supernatant is removed and subjected to radioimmunoassay in order to determine the percent inhibition of arachidonic acid, prostaglandin E2 and leukotriene C4 by the test compounds.

Where [4] appears, read: pH 7.4, read-out: % Inhibition of PLA2.
Setting [5] is: at 100 μM, human platelet PLA2, 30 minutes, pH 7.4, read-out: % Inhibition of PLA2.
Where [6] appears, read: human platelet PLA2, 30 minutes, pH 7.4.

Where a name gives a salt, the structure may show the parent alone. Read-outs that look alike come from different tables or passages of the source.

Description for human platelet PLA2: The ability of the compounds to inhibit the activity of PLA2 enzyme is measured in the following in vitro assay.
The assay measures the hydrolysis of E. coli membrane phospholipids and the release of free [1-^14 C] oleic acid from the C-2 position of phospholipids by human platelet PLA2. To ice cold 15×100 mm test tubes, the following additions are made: 2,5×10 E. coli (equivalent to 4 nmol phospholipid), 5 mM Ca^++, 100 mM Tris buffer (pH=7.4), 100 μg platelet extract (or an amount to produce 20-30% hydrolysis), drug or vehicle. The final volume is adjusted to 500 μl with water. Mixtures are vortexed and incubated for 30 minutes in a shaking water bath. It should be noted that preliminary experiments are always performed with each new batch of platelets to establish linear hydrolysis of phospholipids with regard to protein concentration and time. The enzyme reaction is stopped by the addition of 3 volumes of chloroform to each tube which is vortexed and then centrifuged for 5 minutes at 500 g. The lower chloroform/methanol phase is removed and evaporated under N. The dried residue is redissolved in 50 μl CHCl3 :CH3 OH (9:1 v/v), spotted on aluminum-backed chromatographic plates and developed in a solvent system consisting of petroleum ether:diethyl ether:acetic acid (80:20:1). Free fatty acid ([1-^14 C]oleic acid) and [1-^14 C]oleic acid labeled phospholipids are visualized with exposure to iodine vapors. Radioactive areas that cochromatographed with authentic oleic acid and phospholipid standards are cut out and placed in a scintillation vial. One ml CH3 OH and 10 ml Hydrofluor are added to each cut strip and radioactivity is determined by liquid scintillation counting.
The percent hydrolysis is calculated by the following equation: [formula]

Turning to `CCCCCCCCCCCCCCCCNC(=O)C(N)CCCC.Cl` (centres unmarked) [Example 1, 2-Amino-N-hexadecylhexanamide, hydrochloride], at human platelet PLA2 (setting [4]), the inhibition at 100 µM is 99%. For the same compound, in assay [1], the “% Change from Control (mouse ear edema)” value was -25%. For the compound `CCCCC(N)C(=O)NC1CCCCCCCCCCC1.Cl` (centres unmarked) [Example 2a, 2-Amino-N-cyclododecylhexanamide, hydrochloride], the inhibition at 100 µM on human platelet PLA2 (setting [4]) came to 76%. For the same compound, the “% Change from Control (mouse ear edema)” value in assay [1] was -60%. The “% Inhibition (paw edema)” value in assay [2] was determined as 22%. Take `CCCC[C@H](N)C(=O)N1CCC(C)CC(C)(C)C1` (stereo partly drawn) [Example 2b, 1-[(S)-2-Amino-1-oxohexyl]hexahydro-3,3,5-trimethyl-1H-azepine, hydrochloride]: at human platelet PLA2 (setting [4]), the inhibition at 100 µM is 25%. Take `CCCC[C@H](N)C(=O)N1CCC2CCCCC2C1` (stereo partly drawn) [Example 2c, 2-[(S)-2-Amino-1-oxohexyl]decahydroisoquinoline, hydrochloride hemihydrate]: the inhibition at 100 µM at human platelet PLA2 (setting [5]) is 24%. In the case of `CCCC[C@H](NC(=O)CCCCCCc1ccccc1)C(=O)N1CC(C)NC(C)C1` (stereo partly drawn) [Example 3, N-[(S)-1-Butyl-2-(3,5-dimethyl-1-piperazinyl)-2-oxoethyl]benzeneheptanamide], on human platelet PLA2 (setting [5]), the inhibition at 100 µM amounted to 64%. Moreover, the “% Change from Control (mouse ear edema)” value in assay [1] is -39%. Turning to `CCCCC(NC(=O)Cc1ccc(-c2ccccc2)cc1)C(=O)N1CC(C)NC(C)C1` (centres unmarked) [Example 4, N-[1-[(3,5-Dimethyl-1-piperazinyl)carbonyl]pentyl][1,1'-biphenyl]-4-acetamide], on human platelet PLA2 (setting [5]), the inhibition at 100 µM worked out at 52%. On to `CCCCCCCCCCCCCCCCNC(=O)[C@@H]1CCCN1` [Example 5a, N-(S)-Hexadecyl-2-pyrrolidinecarboxamide], for which the inhibition at 100 µM on human platelet PLA2 (setting [5]) worked out at 92%. For the same compound, in assay [1], the “% Change from Control (mouse ear edema)” value is reported as -53%. Also, the “% Inhibition (paw edema)” value in assay [2] was 26%. Moreover, the IC50 came to 19.6 µM in assay [3] (arachidonic acid, zymosan or TPA stimulus, read-out: IC50 AA); 7.6 µM in assay [3] (leukotriene C4, zymosan or TPA stimulus, read-out: IC50 LTC4); 13.7 µM in assay [3] (prostaglandin E2, zymosan or TPA stimulus, read-out: IC50 PGE2). As to `CCCCCCCCCCCCCCCCNC(=O)[C@H]1CCCN1` [Example 5b, N-(R)-Hexadecyl-2-pyrrolidinecarboxamide], at human platelet PLA2 (setting [5]), the inhibition at 100 µM was determined as 98%. Further, the “% Inhibition (paw edema)” value in assay [2] is reported as 26%.

As for `O=C(NC1CCCCCCCCCCC1)C1CCCN1` (centres unmarked) [Example 5c, N-Cyclododecyl-2-pyrrolidinecarboxamide, hydrochloride], the inhibition at 100 µM on human platelet PLA2 (setting [4]) is 58%. Same read-out and setting: then `O=C(NC1CCCCCCCCCCC1)C1CCCCN1` (centres unmarked) [Example 5d, N-Cyclododecyl-2-piperidinecarboxamide, hydrochloride], with 45%. With `O=C(C1CCCCN1)N1CCC2CCCCC2C1` (centres unmarked) [Example 5f, Decahydro-2-(2-piperidininylcarbonyl)isoquinoline, hydrochloride], the inhibition at 100 µM on human platelet PLA2 (setting [5]) stood at 24%. As for `N[C@@H](Cc1c[nH]c2ccccc12)C(=O)NC1CCCCCCCCCCC1` [Example 6, (S)-α-Amino-N-cyclododecyl-1H-indole-3-propanamide, hydrochloride], the inhibition at 100 µM at human platelet PLA2 (setting [4]) was determined as 52%. Turning to `N[C@@H](CC(=O)OCc1ccccc1)C(=O)NC1CCCCCCCCCCC1` [Example 7, (S)-3-Amino-4-(cyclododecylamino)-4-oxobutanoic acid phenylmethyl ester, hydrochloride], on human platelet PLA2 (setting [4]), the inhibition at 100 µM stood at 60%. On human platelet PLA2 (setting [6]), `COc1ccc2c(c1)c(CC(=O)O)c(C)n2C(=O)c1ccc(Cl)cc1` [Indomethacin, reference compound] showed an IC50 of 48 µM. Further, in assay [2] (Rattus norvegicus, po, 3 h, read-out: Oral ED50 (95% C.L.)), the ED50 was 3.7 mg/kg. At human platelet PLA2 (setting [6]), “Gold Sodium Thiomalate [reference compound]” yielded an IC50 of 43 µM.

Usually inhibition stands for the drop in the measured response relative to a control, in per cent. What is called IC50 is the point on the concentration scale where inhibition reaches its midpoint. As usually defined, the ED50 is the midpoint of the dose-response relation.
